The values that follow come from patent US20040127489A1, “Novel antipsychotic combination therapies and compositions useful therein” (priority 2002, published 2004).

The conditions of experiment [1]: idazoxan 120 mg/day added to 1000 mg chlorpromazine equivalents of fluphenazine; Litman et al. 1996; cited from earlier work.
For a further experiment, the system named is α2 adrenoreceptors. Particulars: Martire et al. 1988; cited from earlier work.
Another experiment relates to α2 autoreceptors. The following applies: presynaptic; Martire et al. 1988; cited from earlier work.
The next experiment concerns the target D2 receptor (Homo sapiens, UniProt P14416). The following applies: Merck Manual 17th Edition; cited from earlier work.
A further experiment deals with Wistar rats. As to the kind of experiment: Conditioned avoidance response (CAR) behavior in rats. The following applies: rat CAR; adjunct treatment with idazoxan. It counts as in vivo. An excerpt:
Food and water were available ad libitum.
Rats were trained and tested in a conventional, manually operated two-way active avoidance (shuttlebox) apparatus connected to a high resistance power supply. The box was divided into two compartments of equal size by a partition with one opening. Upon presentation of the 80 dB white noise conditioned stimulus (CS), the animals had 10 seconds to move from one compartment of the shuttlebox into the other. If the rat remained in the same compartment for more than 10 seconds, an intermittent electric shock (approx. 0.2 mA of 0.5-sec duration; intershock interval 2.5 sec), the unconditioned stimulus (UCS), was presented in the grid floor until an escape was performed. […] Intertrial intervals varied at random between 20 and 40 seconds. The following variables were recorded: avoidance (response to CS within 10 sec); escape (response to CS+UCS); escape failures (failure to respond); and intertrial crosses. The animals were trained for 3 consecutive days. Training sessions were run over 15 minutes. A final test session (7.5 minutes) was performed on the day immediately prior to the first experimental day, and only animals performing at the 100% correct level were assigned to the experiment. Experimental manipulations were always preceded by a pretest. […]

Experiment [2] concerns α2 adrenergic receptor versus dopamine D2 receptor. The following applies: literature; cited from earlier work.

D2 receptor, sequence (P14416 whole entry): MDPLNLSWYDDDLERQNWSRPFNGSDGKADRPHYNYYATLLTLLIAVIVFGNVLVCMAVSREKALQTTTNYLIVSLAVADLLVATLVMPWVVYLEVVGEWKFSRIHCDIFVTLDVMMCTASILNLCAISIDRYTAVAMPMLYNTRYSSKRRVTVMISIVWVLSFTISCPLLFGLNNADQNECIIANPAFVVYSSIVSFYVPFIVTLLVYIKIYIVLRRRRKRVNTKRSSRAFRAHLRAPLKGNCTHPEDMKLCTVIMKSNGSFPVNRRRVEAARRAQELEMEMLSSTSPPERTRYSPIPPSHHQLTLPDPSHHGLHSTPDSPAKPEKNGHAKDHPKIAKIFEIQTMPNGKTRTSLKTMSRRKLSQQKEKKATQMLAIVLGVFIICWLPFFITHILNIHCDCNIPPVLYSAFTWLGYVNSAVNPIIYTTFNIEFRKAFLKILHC

For the molecule `c1ccc2c(c1)OCC(C1=NCCN1)O2` (racemic) [idazoxan, ±-2-(1,4-benzodioxan-2-yl)-d-imidazoline], in experiment [1], the clinical response entry is given as “adequate clinical responses”.
As for `c1ccc2c(c1)OCC(C1=NCCN1)O2` (single isomer, unassigned; (+)) [(+)-idazoxan], the “potency in inhibiting p-[3H]aminoclonidine binding relative to (−) idazoxan” value with α2 adrenoreceptors was 7-8 times. For the same molecule, in the experiment on α2 autoreceptors, the “affinity towards the α2 autoreceptors relative to (−) idazoxan” value is on record as 40 times.
As to `OCCN1CCN(CCCN2c3ccccc3Sc3ccc(C(F)(F)F)cc32)CC1` [fluophenazine, fluphenazine], the “dose corresponding to 1000 mg chlorpromazine equivalents” value (shortened to “dose corresponding”) at D2 receptor is 20 mg.
In the case of `Cc1cc2c(s1)Nc1ccccc1N=C2N1CCN(C)CC1` [olanzapine], the “reduction of the olanzapine dose required for an effective antipsychotic effect through adjunct idazoxan” value with Wistar rats is reported as approximately 50%.
For `OCCOCCN1CCN(C2=Nc3ccccc3Sc3ccccc32)CC1` [quetiapine], the “dose corresponding” value at D2 receptor is given as 900 mg.
Consider `O=C1NCCN1CCN1CCC(c2cn(-c3ccc(F)cc3)c3ccc(Cl)cc23)CC1` [sertindole], for which the “dose corresponding” value at D2 receptor is given as 24 mg.
Turning to `O=C1Cc2cc(CCN3CCN(c4nsc5ccccc45)CC3)c(Cl)cc2N1` [ziprasidone], in experiment [2], the “fold less affinity for the α2 adrenergic receptor than for the dopamine D2 receptor” value is 100 fold.
